Laboratory results from patent US7135572B2 (CJ Corp, priority 2001, dated 2006).

Key:
cyclooxygenase-1 = target: T1, cyclooxygenase-1 (Homo sapiens, UniProt P23219); test: Inhibition of cyclooxygenase-1 in U-937 cells (PGE2 quantitation); format: cell-based; details: U-937 cells
T1 construct: The cultured U-937 (humane lymphoma cell, obtained from Korean cell line bank) was centrifuged to collect the pellet; endogenous in cells; host or cells: U-937 (human lymphoma cell line, Korean cell line bank)
Procedure: (§1) In order to investigate pharmacologically the selective inhibition activity against cyclooxygenase-2 enzyme, the inhibitive effects against cyclooxygenase-1 and cyclooxygenase-2 were measured by two methods as follows.
Then, the pellet was diluted with 1×HBSS(Hank's balanced salt solutin) at the concentration of 1×10^6 cells/ml, and 1 ml of them was transferred into each well of 12-well plates, and then dissolved with DMSO. 5μl of the diluted sample solution, and 5μl of DMSO vehicle were added therein and mixed, and the mixture was cultured at 37° C. in Co2 incubator for 15 minutes. Arachidonic acid as a substrate was dissolved in ethanol to prepare a stock solution with a concentration of 10 mM, followed by diluting with 1×HBSS to prepare the solution of 1 mM. 10 μl of 1 mM Arachidonic acid solution was added to each of the treated wells, and the mixture was cultured at 37° C. in CO2 incubator for 30 minutes. The cell solution of each well was collected in the centrifuge tube and was centrifuged at 4° C. for 5 minutes at 10,000 rpm. As PGE2 existed in the supernatant separated from collected cell, the concentration of PGE2 was quantitated by using monoclonal kit from Cayman Chemicals, and the concentration of samples and vehicle were compared to estimate the inhibition ratio (%) of each compound against cyclooxygenase-1. Ultimately, the inhibition effect against the cyclooxygenase-1 enzyme was obtained from the result.

cyclooxygenase-2 = target: T2, cyclooxygenase-2 (Mus musculus, UniProt Q05769); test: Inhibition of cyclooxygenase-2 in Raw 264.7 cells treated with interferon γ and LPS (PGE2 EIA); format: cell-based; details: Raw 264.7 cells
T2 construct: endogenous in cells; host or cells: Raw 264.7 (Korean cell line bank), aspirin-pretreated, induced with interferon gamma and LPS
T2 sequence (Q05769 18-604): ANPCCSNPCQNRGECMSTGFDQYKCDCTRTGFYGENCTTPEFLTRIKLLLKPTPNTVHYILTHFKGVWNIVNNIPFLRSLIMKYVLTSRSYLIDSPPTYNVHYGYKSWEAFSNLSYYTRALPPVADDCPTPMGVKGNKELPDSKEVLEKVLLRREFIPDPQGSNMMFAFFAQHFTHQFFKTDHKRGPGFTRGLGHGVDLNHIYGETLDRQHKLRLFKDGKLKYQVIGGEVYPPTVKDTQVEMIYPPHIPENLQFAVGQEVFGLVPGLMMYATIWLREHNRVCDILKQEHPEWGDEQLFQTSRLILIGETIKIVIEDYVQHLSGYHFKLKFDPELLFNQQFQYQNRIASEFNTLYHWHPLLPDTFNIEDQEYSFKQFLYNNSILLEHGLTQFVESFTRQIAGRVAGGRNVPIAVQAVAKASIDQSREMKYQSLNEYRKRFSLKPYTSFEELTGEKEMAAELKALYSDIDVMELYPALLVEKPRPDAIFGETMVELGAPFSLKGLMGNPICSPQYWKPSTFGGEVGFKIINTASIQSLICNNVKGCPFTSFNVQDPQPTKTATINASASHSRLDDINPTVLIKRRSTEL
Procedure: as §1
And then, each samples were replaced with new media and cultured for 30 minutes. In addition, the samples was treated with 100 units/ml of interferon Υ and 100 ng/ml of lipopolysaccharide(LPS), and cultured for 18 hours. Then, the media was transferred to other tubes and the PGE 2 was quantitated by using EIA kit from Cayman Chemicals.

T1 sequence (P23219 24-599): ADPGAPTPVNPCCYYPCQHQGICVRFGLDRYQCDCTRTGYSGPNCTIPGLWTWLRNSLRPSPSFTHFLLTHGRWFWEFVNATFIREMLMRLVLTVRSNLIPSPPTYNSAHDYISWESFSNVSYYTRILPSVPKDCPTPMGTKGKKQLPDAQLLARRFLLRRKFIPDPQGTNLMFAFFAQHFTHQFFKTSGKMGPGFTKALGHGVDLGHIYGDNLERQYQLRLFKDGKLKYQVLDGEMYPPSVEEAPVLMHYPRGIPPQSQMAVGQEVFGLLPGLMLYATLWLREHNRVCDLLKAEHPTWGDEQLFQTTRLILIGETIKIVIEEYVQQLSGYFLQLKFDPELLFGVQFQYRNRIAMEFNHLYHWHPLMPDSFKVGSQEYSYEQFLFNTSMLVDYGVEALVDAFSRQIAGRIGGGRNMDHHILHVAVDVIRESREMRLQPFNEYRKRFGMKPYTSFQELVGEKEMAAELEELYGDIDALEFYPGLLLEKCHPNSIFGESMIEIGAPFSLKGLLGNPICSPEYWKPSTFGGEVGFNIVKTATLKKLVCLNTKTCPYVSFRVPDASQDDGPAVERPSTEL

- Inhibitory effects of cyclooxygenase (COX): COX-1 (cyclooxygenase-1; 3 μM): 62.0 % inhibition
- Inhibitory effects of cyclooxygenase (COX): COX-1 (cyclooxygenase-1; 10 μM): 75.1 % inhibition
- Inhibitory effects of cyclooxygenase (COX): COX-1 (cyclooxygenase-1; 30 μM): 84.7 % inhibition
- Inhibitory effects of cyclooxygenase (COX): COX-2 (cyclooxygenase-2; 30 nM): 31.3 % inhibition
- Inhibitory effects of cyclooxygenase (COX): COX-2 (cyclooxygenase-2; 100 nM): 52.6 % inhibition
- Inhibitory effects of cyclooxygenase (COX): COX-2 (cyclooxygenase-2; 300 nM): 50.5 % inhibition
Structure (SMILES): Cc1nc(-c2cccc(Cl)c2)n(-c2ccc(S(N)(=O)=O)cc2)n1 [Example 8, 4-[5-(3-chloro-phenyl)-3-methyl-[1,2,4]triazole-1-yl]-benzenesulfonamide]
